Laboratory results published in patent US10849906B2, “Use of Akt2 in diagnosis and treatment of tumor” (priority 2015, dated 2020).

How the values were obtained:
[1] = mouse, in vivo
[2] = system: Akt/FoxO3a/Bim signaling pathway in CCRF-CEM cells; assay: Western blot of Akt/FoxO3a/Bim signaling pathway proteins in CCRF-CEM cells; type: cell-based, human
Description: (§1) The control group was not added with any reagents. All experiments were performed in triplicate.
Protein detection by Western blot: in the examples of the present invention, Akt antibody (rabbit derived), phosphorylated Akt antibody (rabbit derived), FoxO3a antibody (rabbit derived), phosphorylated FoxO3a antibody (rabbit derived) and GAPDH antibody (rabbit derived) and secondary antibodies were all purchased from CST company. The cells were collected in a centrifuge tube and centrifuged at 1000 rpm, the supernatant was discarded and the cells were washed twice with PBS pre-cold at 4° C.; cell lysis buffer (150 mM NaCl, 1% NP-40, 0.1% SDS, 2 μg/ml Aprotinin, 2 μg/ml Leupeptin, 1 mM PMSF, 1.5 mM EDTA, 1 mM sodium vanadate) was added and the cells were lysed on ice for 40 minutes, the cell lysate was centrifuged at 20000 rpm, 4° C. for 15 minutes, and the supernatant was collected; a protein loading buffer for sodium dodecyl sulfate polyacrylamide (SDS-PAGE) gel electrophoresis (1.25 mL 1MTris-HCl (pH6.8), 0.5 g SDS, 25 mg BPB, 2.5 mL glycerol, 5 mL deionized water) was added, followed by boiling for 5 minutes to denature proteins; the loading buffer containing denatured proteins was applied to 10% SDS-PAGE for electrophoresis at 120 V, and then transferred to a PVDF membrane (Sangon Biotech (Shanghai) Co., Ltd.) at 130 V for 1.5 hours; after the membrane transfer was completed, the PVDF membrane was immediately rinsed with a Western washing solution (150 mmol/L NaCl, 50 mmol/L Tris-HCl (pH 7.5)) for 1-2 minutes; added with 5% non-fat milk powder (Shanghai Biotechnology Co., Ltd.), agitated gently and then blocked at room temperature for 60 minutes; a primary antibody diluted appropriately with 5% non-fat milk powder was added, and incubated overnight at room temperature with gentle agitating; the primary antibody was recovered and the membrane was washed three times with the washing solution for 5-10 minutes each; a horseradish peroxidase-labeled secondary antibody diluted appropriately with the Western washing solution was added, and incubated at room temperature for 1 hour with gentle agitating; the secondary antibody was recovered and the membrane was washed three times with the Western washing solution for 5-10 minutes each. An appropriate amount of developing solution (DAB 4 mg, 30% hydrogen peroxide 15 μL, 0.01 M Tris-Cl (pH 7.5) 5 mL) was dropped on the PVDF membrane, the image was detected using a bioluminescence image colorimeter and a gel imaging system (Thermo company), and the quantitative analysis of bands was performed using Image Lab software.
(§2) The cells were cultured in RPMI 1640 complete medium (Gibco company) containing 10% fetal bovine serum (FBS, Gibco company) in an incubator (Thermo company) at 5% CO2 and 37° C. until reaching logarithmic growth phase, then different concentrations of inhibitors and/or dexamethasone/ethanol/DMSO were added to the culture medium, followed by further culturing (for addition of dexamethasone/ethanol/DMSO, for 48 hours, and for addition of inhibitor, for 24 hours), and apoptosis was detected by Annexin V-FITC PI double staining and proteins were detected by Western blot, as described in Example 1.
Methods: CCRF-CEM cells were cultured in RPMI 1640 complete medium (Gibco company) containing 10% fetal bovine serum (FBS, Gibco company) in an incubator (Thermo company) at 5% CO2 and 37° C. until reaching logarithmic growth phase, then DMSO, dexamethasone and different inhibitors (DMSO: 0.1%, dexamethasone: 0.1 μM, inhibitors: 0.8 μM) were added to the culture medium, and further cultured (for addition of dexamethasone or DMSO, for 48 hours, and for addition of inhibitors, for 24 hours), and the proteins were detected by Western blot, as described in Example 1.

Jurkat cells = assay: Apoptosis by Annexin V-FITC PI double staining, Jurkat; type: cell-based, human; conditions: compared to the only/single dexamethasone group; FIG. 2F, 4J
Description: (§3) Apoptosis was detected by Annexin V-FITC PI double staining method (flow cytometry kit (FITC, PI double staining), Sangon Biotech (Shanghai) Co., Ltd.)), and the collected cells were washed once with phosphate buffered saline (PBS) (135 mM NaCl, 2.7 mM KCl, 1.5 mM KH2PO4 and 8 mM K2HPO4, pH 7.2); the 4× binding buffer was diluted to a 1× binding buffer with deionized water, then the cells were resuspended with 195 ul of the 1× binding buffer at a cell density of 2-5×10^5/ml; 5 μl of Annexin V-FITC was added to the 195 μl of the cell resuspension and mixed, and incubated in dark at room temperature for 10 minutes; the cells were washed once with 200 μl of the 1× binding buffer, and then resuspended in 190 μl of the 1× binding buffer; 10 μl of propidium iodide (20 μg/ml) was added. A flow cytometry device (Beckman company) was used for detection, and the rate of apoptosis was analyzed using Summit software.
as §2
(§4) As described in Example 3, the cells were cultured in RPMI 1640 complete medium containing 10% fetal bovine serum under 5% CO2 and 37° C. until reaching logarithmic growth phase, and then dexamethasone and different concentrations of Akt inhibitor were added to the culture medium, followed by further culture (for addition of dexamethasone/DMSO, for 48 hours, and for addition of the inhibitor, for 24 hours), the apoptosis was detected by Annexin V-FITC PI double staining method and proteins were detected by Western blot as described in Example 1 as well as the cell viability was detected by CCK-8 method.
The transfected cells were selected and passaged for 3 to 5 passages after resuscitation, with Interferin™ as transfection reagent, and the transfection procedure was performed in accordance with the instruction of the transfection reagent. In short, the cells of logarithmic growth phase were plated at 2×10^5/well, the cells were replaced with fresh complete medium (free of antibiotics) during transfection, siRNA was diluted with Opti-MEM and added with an appropriate amount of […]in™ and mixed, incubated at room temperature for 10 minutes prior to being added dropwise to the cells, and the cells were harvested at appropriate time. The cells were transfected with green fluorescein-labeled siRNA (FAM-siRNA) (siRNA at a final concentration of 20 μM, 1.25 μl/well), and the transfection efficiency was observed using a fluorescence microscope 24 hours later. The dexamethasone group was added 24 hours after transfection, followed by culture for further 24 hours, and then the cells were collected for observation; and the equal amount of anhydrous ethanol was added to the control group.

[3] = system: CCRF-CEM tumor-bearing mice; assay: Glucocorticoid sensitization in CCRF-CEM tumor-bearing nude mice; type: in vivo
Description: The overall survival time, tumor size and spleen cell apoptosis of the tumor-bearing mice were measured, and the pathological HE staining was carried out to tumors.
The overall survival, tumor size and spleen size of the tumor-bearing mice were measured, the pathological sections of tumor were for HE and Ki-67 staining, and the pathological sections of spleen were for HE, CD3, and TdT staining.

SP2/0 cells = assay: Apoptosis by Annexin V-FITC PI double staining, SP2/0; type: cell-based, mouse; conditions: compared to dexamethasone alone; FIG. 2M
Description: as §3, with “software. […]” for “software.”

Raji cells = assay: Apoptosis by Annexin V-FITC PI double staining, Raji; type: cell-based, human; conditions: compared to dexamethasone alone; FIG. 2K, 2N
Description: as §3, with “software. […]” for “software.”

Molt4 cells = assay: Apoptosis by Annexin V-FITC PI double staining, Molt4; type: cell-based, human; conditions: compared to the only dexamethasone group; FIG. 2E
Description: as §3, with “software. […]” for “software.”

CCRF-CEM cells = assay: Apoptosis by Annexin V-FITC PI double staining (flow cytometry), CCRF-CEM; type: cell-based, human
Description: as §1, §3, §2, §4

[4] = system: L-02 human-derived healthy liver cell line
Daudi cells [5] = assay: Cell viability by CCK-8 and combination index, Daudi; type: cell-based, human; conditions: B lymphoma cells; as shown in Table 1
Description: as §4
The inhibitory effect of two drugs (dexamethasone and an inhibitor) alone and in combination on various lymphocyte lines was observed by CCK-8 method (CCK-8 kit), and then the half-inhibitory concentration of each drug was calculated using the median effect equation, and the combination index (CI) of the two drugs used in combination was calculated using CompuSyn software.
(1) the lymphocytes of logarithmic growth phase were taken and made to a cell suspension of 5×10^4/mL, a blank control group (5 wells), a dexamethasone group (3 wells for each concentration, triplicates), a single inhibitor group (3 wells for each concentration, triplicates), a dexamethasone plus inhibitor group (3 wells for each combined concentration, triplicates) were prepared, 180 μL of the suspension was seeded to each well of a 96-well plate, and incubated for 24 hours in an incubator at 5% CO2 and 37° C.
Based on the drug resistance of cells, the ratio of two drugs was fixed. The dexamethasone group was cultured for 48 hours while the inhibitor group was cultured for 24 hours.
(3) 10 μl of CCK-8 was added to each well, and cultured for 2 hours, and the optical density (OD) was measured at 450 nm using an automatic microplate reader, and the proliferation inhibition rate of the drug on cell was calculated.
(4) the proliferation inhibition rate was calculated according to the following equation: cell proliferation inhibition rate=(1-average OD value in the test group/average OD value in the control group)×100%, and the effect of interaction between the two drugs was analyzed by Chou-Talalay combination index method.

Daudi cells [6] = assay: Apoptosis by Annexin V-FITC PI double staining, Daudi; type: cell-based, human; conditions: compared to the dexamethasone group; FIG. 2K, 4L
Description: as §3
as §2, with “1. […]” for “1.”

[7] = Toxicity in tumor-bearing nude mice (peripheral blood test, organ pathology)
[8] = system: L-02 human-derived healthy liver cell line; assay: CCK-8 viability of healthy liver cells L-02; conditions: FIG. 6A
[9] = CCRF-CEM, inhibitors 0.8 μM, FIG. 5A

For `CC[n+]1c(/C=C/N(C)c2ccccc2)n(-c2ccccc2)c2ccc(-c3nc4ccccc4s3)cc21.[I-]` [Akt IV], the liver toxicity [1] was “obvious liver toxicity”, the “expression of pro-apoptosis factor Bim, inhibitor plus dexamethasone” value ([2]; compared to the only dexamethasone group, FIG. 2B, 2H) was “up-regulated” and the “expression of phosphorylated FoxO3a, inhibitor plus dexamethasone” value ([2]; compared to the only dexamethasone group, FIG. 2B, 2H, 2I) was “significantly down-regulated”. For the same compound, the “apoptosis of Jurkat cells, inhibitor in combination with dexamethasone” value (Jurkat cells) was “significantly increased”, the “size of subcutaneous tumor” value ([3]; Akt inhibitor 1.25 μg/mouse plus dexamethasone 0.1 mg/mouse i.p. once daily 7 days, vs single dexamethasone group, FIG. 3A, 3B) was “synergized with dexamethasone to reduce the size of subcutaneous tumor” and the “overall survival of tumor-bearing mice” value ([3]; Akt inhibitor in combination with dexamethasone vs single dexamethasone group, FIG. 3D) was “significantly increased”. The “apoptosis of spleen lymphocytes in the tumor-bearing mice” value ([3]; Akt inhibitor plus dexamethasone vs single dexamethasone group, FIG. 3E) was “significantly increased”, the “apoptosis of SP2/0 cells, inhibitor in combination with dexamethasone” value (SP2/0 cells) was “significantly increased” and the “apoptosis of Raji cells, inhibitor in combination with dexamethasone” value (Raji cells) was “significantly increased”. The “apoptosis rate of Molt4 cells, inhibitor in combination with dexamethasone” value (Molt4 cells) was “significantly increased”, the “sensitization effect to glucocorticoids compared with other cell proliferation pathway inhibitors” value (CCRF-CEM cells; CCRF-CEM, in combination with dexamethasone, FIG. 2L) was “strongest effect of inducing apoptosis in combination with dexamethasone” and the “apoptosis rate of CCRF-CEM cells, different concentrations of Akt inhibitor in combination with dexamethasone” value (CCRF-CEM cells; FIG. 2C) was “increased along with the increased concentration of the Akt inhibitor”. The “apoptosis of CCRF-CEM cells induced by dexamethasone, inhibitor plus dexamethasone” value (CCRF-CEM cells; compared to dexamethasone alone, FIG. 2A: Akt inhibitor 1 μM, dexamethasone 1 μM, LY294002 30 μM, FIG. 2G, 2J, 2K) was “significantly increased”.
For `O=c1[nH]c2ccccc2n1C1CCN(Cc2ccc(-c3nc4cc5nc[nH]c5cc4nc3-c3ccccc3)cc2)CC1` [Akti-1/2], the “expression of p-Akt1” value [2, 9] was “reduced”, the “expression of p-Akt2” value [2, 9] was “reduced” and the “recovery of liver cell activity” value [4] was “gradually recovered after 24 hours of administration”. The “effect of inhibitor in combination with dexamethasone in B lymphoma cells (in words)” value (Daudi cells [5]) was “moderate synergistic effect”, the “apoptosis of Jurkat cells, inhibitor in combination with dexamethasone” value (Jurkat cells) was “significantly increase” and the “apoptosis of Daudi cells, inhibitor in combination with dexamethasone” value (Daudi cells [6]) was “significantly increase”. The “liver pathology (HE staining)” value ([7]; 7-day administration, FIG. 8A, 8B) was “did not cause morphological changes of the liver tissues”, the “level of TBIL” value ([7]; compared to the NC group, FIG. 6I) was “significantly increased” and the “level of peripheral blood AST” value ([7]; compared to the normal saline group (NC), FIG. 3F, 6H) was “significantly increased”. For the same compound, the “level of peripheral blood ALT” value ([7]; compared to the normal saline group (NC), i.p. 7 days, FIG. 3F, 6G) was “significantly increased”, the “damage to liver cells” value ([8]; DEX 0.1 μM, inhibitors 0.8 μM) was “certain damage” and the liver cell activity ([8]; after 12 hours of administration) was 50.5%.
